In brackets after ≈: the same amount, converted by molar mass.
Tests used:
P. falciparum K1 = test: Malaria in vitro screening model (3H-hypoxanthine incorporation); type: cell-based, Plasmodium falciparum; details: for IC50: Plasmodium falciparum, K1
Experimental: […] P. falciparum K1 is used in this study. K1 (a clone originating from Thailand) is resistant to chloroquine and pyrimethamine. The strains are maintained in RPMI 1640 medium with 0.36 mM hypoxanthine, supplemented with 25 mM N 2-hydroxyethyipiperazine-N-2-ethane-sulphonic acid (HEPES), 25 mM NaHCO3, neomycin (100 U/mL) and 5 g/L of ALBUMAX® II (lipid-rich bovine serum albumin, GIBCO, Grand Island, N.Y., USA), together with 5% washed human A+ erythrocytes. All cultures and assays are conducted at 37° C. under an atmosphere of 4% CO2, 3% O2 and 93% N2. Cultures are kept in incubation chambers filled with the gas mixture. Subcultures are diluted to a parasitemia of between 0.1 and 0.5% and the medium is changed daily.
Antimalarial activity is assessed using an adaptation of the procedures described by Desjardins et al. (Antimicrob. Agents Chemother. 16:710-718, 1979), and Matile and Pink (In: Lefkovits, I. and Pernis, B. (Eds.), Immunological Methods Vol. IV, Academic Press, San Diego, pp. 221-234, 1990).
Stock drug solutions are prepared in 100% dimethylsulfoxide (DMSO) at 10 mg/mL, and heated or sonicated if necessary to dissolve the sample. After use, the stocks are kept at −20° C. For the assays, the compound is further diluted in serum-free culture medium and finally to the appropriate concentration in complete medium without hypoxanthine.
Assays are performed in sterile 96-well microtiter plates, each well containing 200 μl of parasite culture (0.15% parasitemia, 2.5% hematocrit) with or without serial drug solutions. Seven 2-fold dilutions are used, covering a range from […] to 0.078 μg/mL. For active compounds the highest concentration is lowered (e.g., to […]); for plant extracts the highest concentration is increased to 50 μg/mL. […] After 48 hours of incubation at 37° C., 0.5 μCi ^3H-hypoxanthine is added to each well. Cultures are incubated for a further 24 h before being harvested onto glass-fiber filters and washed with distilled water. The radioactivity is counted using a Betaplate liquid scintillation counter (Wallac, Zurich, Switzerland). The results are recorded as counts per minute per well at each drug concentration and expressed as percentage of the untreated controls. IC50 values are calculated from the sigmoidal inhibition curves using Microsoft EXCEL.

[1] = tested on: T. b. rhodesiense STIB 900; test: African sleeping sickness in vitro screening model (Alamar Blue); type: cell-based, Trypanosoma brucei rhodesiense; details: for IC50: Trypanosoma brucei
Procedure, shortened: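 Bloodstream-form trypomastigotes, 8×10^3/well, were grown in supplemented MEM with 15% horse serum, without hypoxanthine, at 37 °C in 5% CO2. They were exposed for 72 h to seven 3-fold dilutions from 90 to 0.123 μg/mL. Resazurin (Alamar Blue) was added for 2 h, fluorescence read at ex 536/em 588 nm, and IC50 taken as the mean of four values.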

[2] = tested on: Trypanosoma cruzi Tulahuen C2C4 strain; test: Chagas disease in vitro screening model (beta-galactosidase strain in L-6 cells); type: cell-based; details: for IC50: Trypanosoma cruzi, TULAHUEN, L6, read-out: T. cruzi IC50
Procedure, shortened: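 L-6 rat myoblasts in RPMI 1640/10% FBS at 37 °C were infected with 5×10^3 lacZ-expressing T. cruzi Tulahuen C2C4 trypomastigotes. CPRG/Nonidet substrate was read at 540 nm, and IC50 came from sigmoidal curves.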

[3] = tested on: Leishmania donovani strain MHOM/ET1671L82; test: Leishmaniasis in vitro screening model (axenic amastigotes, Alamar Blue); type: cell-based; details: for IC50: Leishmania donovani, read-out: L. donovani IC50
Procedure, shortened: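 Axenic L. donovani amastigotes (10^5 per well) from hamster spleen, grown at 37° C in SM medium pH 5.4 with 10% FBS, 5% CO2, exposed to serial 3-fold compound dilutions (30 to 0.041 μg/mL) for 72 h. Alamar Blue added for 2 h, fluorescence read (ex 536/em 588 nm); IC50 from sigmoidal curve versus control cultures.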

Compound | IC50 (P. falciparum K1) [µg/mL] | IC50 [1] [µg/mL] | IC50 [2] [µg/mL] | IC50 [3] [µg/mL] | P. falciparum IC50 (P. falciparum K1) [µg/mL] | T. b. rhodesiense IC50 [1] [µg/mL] | T. cruzi IC50 [2] [µg/mL] | L. donovani IC50 [3] [µg/mL]
Fc1ccc(B(Oc2cccc3cccnc23)c2ccc(F)c(Cl)c2)cc1Cl [Compound 12, Bis(3-chloro-4-fluoro-phenyl)borinic acid quinolin-8-yl ester] | 1.5 (≈ 3.62 µM) | 0.52 (≈ 1.26 µM) | 5.6 (≈ 13.5 µM) | 0.68 (≈ 1.64 µM) | – | – | – | –
Cc1cc(B(Oc2cccc3cccnc23)c2cccc(C#N)c2)ccc1Cl [Compound 31, (4-Chloro-3-methylphenyl)(3-cyanophenyl)borinic acid quinolin-8-yl ester] | 1.83 (≈ 4.78 µM) | 0.28 (≈ 0.732 µM) | 0.79 (≈ 2.06 µM) | 0.83 (≈ 2.17 µM) | – | – | – | –
Fc1cc(B(Oc2cccc3cccnc23)c2ccc(Cl)c(F)c2)ccc1Cl [Compound 89] | – | – | – | – | 1.385 | 0.41 | 1.36 | 0.38
C=CB(Oc1cccc2cccnc12)c1cccc(C2=NC(C)(C)CO2)c1 [Compound 93] | – | – | – | – | 3.034 | 0.32 | 3.65 | 0.55
N#Cc1ccc(B(Oc2cccc3cccnc23)c2cc(F)cc(C(F)(F)F)c2)cc1 [Compound 122] | – | – | – | – | 4.577 | 0.4 | 4.55 | 0.45
Fc1cccc(C=CBOc2cccc3cccnc23)c1 [Compound 39, (3-Fluorophenyl)vinyl borinic acid quinolin-8-yl ester] | 122 (≈ 440 µM) | 0.201 (≈ 0.725 µM) | 1.41 (≈ 5.09 µM) | 0.34 (≈ 1.23 µM) | – | – | – | –
C=CB(Oc1c(Cl)cc(Cl)c2ccc(C)nc12)c1cccc(N(C)C)c1 [Compound 84] | – | – | – | – | 2.364 | 0.915 | 1.7 | 0.16
Fc1cccc(B(Oc2cccc3cccnc23)c2ccccc2Cl)c1 [Compound 30, (2-Chlorophenyl)(3-fluorophenyl)borinic acid quinolin-8-yl ester] | 1.74 (≈ 4.81 µM) | 0.305 (≈ 0.843 µM) | 0.82 (≈ 2.27 µM) | 0.58 (≈ 1.6 µM) | – | – | – | –
O=C(O)CCCOc1cccnc1C(=O)OB(c1cccc(Cl)c1)c1cccc(Cl)c1 [Compound 75] | – | – | – | – | 0.494 | 31.1 | 8.9 | 0.61
Fc1ccc(F)c(B(Oc2cccc3cccnc23)c2ccc(Cl)cc2)c1 [Compound 40, (4-Chlorophenyl)(2,5-difluorophenyl)borinic acid quinolin-8-yl ester] | 1.72 (≈ 4.53 µM) | 0.295 (≈ 0.777 µM) | 0.89 (≈ 2.34 µM) | 0.59 (≈ 1.55 µM) | – | – | – | –
N#Cc1cccc(B(Oc2cccc3cccnc23)c2cccc(F)c2)c1 [Compound 29, (3-Cyanophenyl)(3-fluorophenyl)borinic acid quinolin-8-yl ester] | 1.83 (≈ 5.2 µM) | 0.33 (≈ 0.937 µM) | 0.68 (≈ 1.93 µM) | 0.4 (≈ 1.14 µM) | – | – | – | –
C=CB(Oc1cccc2cccnc12)c1cccnc1 [Compound 49, (3-Pyridyl)vinylborinic acid 8-hydroxyquinoline ester] | – | – | – | – | 1.58 | 0.2185 | 1.345 | 0.45
CN(C)Cc1ccc(B(Oc2cccc3cccnc23)c2cc(F)cc(C(F)(F)F)c2)cc1 [Compound 120] | – | – | – | – | 2.794 | 0.42 | 4.9 | 0.44
Fc1cccc(B(Oc2cccc3cccnc23)c2ccc(Cl)cc2F)c1 [Compound 43, (4-Chloro-2-fluorophenyl)(3-fluorophenyl)borinic acid quinolin-8-yl ester] | 1.83 (≈ 4.82 µM) | 0.4 (≈ 1.05 µM) | 0.825 (≈ 2.17 µM) | 0.02 (≈ 0.0527 µM) | – | – | – | –
Cc1ccccc1B(Oc1cccc2cccnc12)c1cccc(Cl)c1 [Compound 25, (3-Chlorophenyl)(2-methylphenyl)borinic acid quinolin-8-yl ester] | 1.81 (≈ 5.06 µM) | 0.295 (≈ 0.825 µM) | 0.905 (≈ 2.53 µM) | 0.41 (≈ 1.15 µM) | – | – | – | –
N#Cc1cccc(B(Oc2cccc3cccnc23)c2ccc(F)cc2F)c1 [Compound 96] | – | – | – | – | 3.035 | 0.34 | 3.3 | 0.63
Cc1ccc(B(OC(=O)c2ncccc2O)c2ccc(C)c(Cl)c2)cc1Cl [Compound 69] | – | – | – | – | 2.449 | 16.5 | 3.35 | 0.22
COC(=O)c1cccnc1C(=O)OB(c1ccc(C)c(Cl)c1)c1ccc(C)c(Cl)c1 [Compound 73] | – | – | – | – | 2.997 | 21.3 | 7.2 | 0.63
Fc1cc(B(Oc2cccc3cccnc23)c2cccc(Cl)c2)cc(C(F)(F)F)c1 [Compound 123] | – | – | – | – | 3.51 | 0.31 | 4 | 0.54
Fc1cc(F)cc(B(Oc2cccc3cccnc23)c2ccc(Cl)cc2)c1 [Compound 44, (4-Chlorophenyl)(3,5-difluorophenyl)borinic acid quinolin-8-yl ester] | 1.87 (≈ 4.93 µM) | 0.275 (≈ 0.724 µM) | 0.71 (≈ 1.87 µM) | 0.5 (≈ 1.32 µM) | – | – | – | –
C=CB(Oc1c(N(C)C)cc(Cl)c2cccnc12)c1ccnc(Cl)c1 [Compound 83] | – | – | – | – | 0.979 | 0.715 | 0.77 | 1.1
O=C(OB(c1cccnc1)c1cccc(Cl)c1)c1ncccc1O [Compound 70] | – | – | – | – | >5 | 38.3 | 28.2 | 18.3
CSc1cccc(B(Oc2cccc3cccnc23)c2cccc(SC)c2)c1 [Compound 87] | – | – | – | – | 4.632 | 0.3 | 3.2 | 0.39
O=C(OB(c1cccc(Cl)c1)c1cccc(Cl)c1)c1ncccc1OCCN1CCOCC1 [Compound 77] | – | – | – | – | 1.225 | 17.2 | 5.15 | 1.1
